Patent publication US6645984B2, “Arylisoxazoline derivatives, processes for their preparation and their use as pesticides” (Aventis CropScience GmbH, priority 2001, dated 2003)

Tested on: Spodoptera litoralis
Experiment: whole plant or invertebrate
Format: in vivo
Settings: 96 h, read-out: larvae mortality
Experimental: Nutrient medium (freeze-dried cube) is dipped into an aqueous solution of the formulated preparation to be examined and then placed into a Petri dish. Ten L2 larvae of the Egyptian cotton leaf worm (Spodoptera litoralis) are then added. The Petri dish is then closed with a lid. The effect of the preparation on the larvae is determined after 4 days of storage at about 23° C. At a concentration of 500 ppm (based on the content of active compound), the preparations of Example Nos. 5, 9, 12, 28, 29, 30, 35, 39, 40, 41, 42, 43, 45, 46, 48, 52, 63, 87, 90, 91, 92, 94, 97, 98, 99, 100, 103, 107, 113, 117, 120, 125, 566, 567, 573, 574, 589, 600, 613, 614, 619, 626 effect a larvae mortality of 80-100%.

In the case of `CC1=NOC(c2ccc(C3COC(c4c(F)cccc4F)=N3)cc2)C1` (stereo not shown) [Example 566, 2-(2,6-Difluorophenyl)-4-(4-(3-methylisoxazolin-5-yl)phenyl)oxazoline], the mortality at 500 ppm is reported as 80 to 100%.
